Broadly, the inhibition is the share of the control response that was lost under treatment.

These results are taken from EP0958820A1, “Use of an imidazol derivative for the manufacture of a medicament for treating auto-immunodiseases” (Sanofi-Synthélabo, priority 1998, dated 1999).

Where a name gives a salt, the structure may show the parent alone.

What all share (format): cell-based
The subject of test [1] is IL-4 production from mouse BMMC. The experiment in a line: Antigen-induced IL-4 production from mouse BMMC (ELISA). The protocol: (§1) • 1. Test drugs Mizolastine and terfenadine used were synthesised according to well known method in the art. Ketotifen fumarate (hereinafter 'ketotifen') was obtained from Toa Boshoku and dexamethasone from Sigma. • 2. Animals […] female mice and Balb/c female mice were used. • 3. Preparation of bone marrow-derived mast cells (hereinafter 'BMMC') Mouse BMMC were prepared in accordance with the method of Saito et al. J. Immunol. 138: 3927-3934, 1987. That is to say, femoral bone marrow cells from female CBA/J mice were suspended to concentrations of 2-5 x 10^5/ml in RPMI 1640 medium to which 50% of WEHI-3 culture supernatant had been added (containing 10% FBS, 5 x 10^-5M 2-mercaptoethanol, 50IU/ml penicillin, […] streptomycin). • 4. Production of IL-4 and TNF-α from mouse BMMC A 1/250 volume of anti-mouse DNP-IgE monoclonal antibody (Seikagaku Kogyo, […]) was added to mouse BMMC (2 x 10^6 cells/ml) and they were further sensitised by being incubated overnight. The sensitised BMMC were washed three times with RPMI 1640 medium, then suspended in RPMI 1640 medium to which 50% of WEHI-3 culture supernatant had been added to give 1.25 x 10^6 cells/ml (IL-4) or 3.75 x 10^6 cells/ml (TNF-α ). Having added 40 µl of a test drug solution prepared as a ten-fold dilution to 320 µl/well of the cell suspension and treated the cells for 30 minutes to one hour at 37°C in 5% CO2, antigen stimulation was applied adding 40 µl of a solution of dinitrophenyl human serum albumin (Sigma; hereinafter 'DNP-HSA'; 300ng/ml) (reaction solution 400 µl/well/48 well plate, final cell concentration 1∼3 x 10^6 cells/ml, final antigen concentration 30ng/ml). The level of the cytokine in the supernatant fluid from the culture was assayed by ELISA 18 hours (IL-4) or 4 hours (TNF-α ) following stimulation with the antigen. • 5. […] The level of TNF-α in the culture supernatant fluid was determined by ELISA 18 hours after stimulating with okadaic acid. • 6. […]

Test [2] has as its system TNF-α production from mouse BMMC. The experiment in a line: Antigen-induced TNF-α production from mouse BMMC (ELISA). The following applies: 4 hours after antigen. As to the method: as §1
(In general: ELISA stands for enzyme-linked immunosorbent assay.)

Test [3] relates to TNF-α production from mouse macrophages. The experiment in a line: Okadaic acid-induced TNF-α production from mouse peritoneal macrophages (ELISA). The following applies: Macrophage, okadaic acid 0.2 µM, 18 hours. As to the method: as §1, with “).” for “). Having added 40 µl of a test drug solution prepared as a ten-fold dilution to 320 µl/well of the cell suspension and treated the cells for 30 minutes to one hour at 37°C in 5% CO2, antigen stimulation was applied adding 40 µl of a solution of dinitrophenyl human serum albumin (Sigma; hereinafter 'DNP-HSA'; 300ng/ml) (reaction solution 400 µl/well/48 well plate, final cell concentration 1∼3 x 10^6 cells/ml, final antigen concentration 30ng/ml). The level of the cytokine in the supernatant fluid from the culture was assayed by ELISA 18 hours (IL-4) or 4 hours (TNF-α ) following stimulation with the antigen. • 5.”

With `C[C@@H]1C[C@H]2[C@@H]3CCC4=CC(=O)C=C[C@]4(C)[C@@]3(F)[C@@H](O)C[C@]2(C)[C@@]1(O)C(=O)CO` [Dexamethasone, dexamethasone], the inhibition at 1 µM was found to be 61.6% in test [1] (Mus musculus, at 1 µM, DNP-HSA stimulated, anti-DNP-IgE sensitised BMMC, 18 hours) and 68.7% in test [2] (Mus musculus, at 1 µM).

`CN1CCC(=C2c3ccccc3CC(=O)c3sccc32)CC1` [Ketotifen, Ketotifen fumarate]: the inhibition at 10 µM in test [1] (Mus musculus, at 10 µM, DNP-HSA stimulated, anti-DNP-IgE sensitised BMMC, 18 hours) was found to be 65.6%. Moreover, the “activity against TNF-α production” value in test [2] (0.1∼10 µM) is listed as “no activity”.

For the compound `CC(C)(C)c1ccc(C(O)CCCN2CCC(C(O)(c3ccccc3)c3ccccc3)CC2)cc1` (stereo not shown) [terfenadine], the “activity on IL-4 production” value in test [1] (concentrations of 0.01∼1 µM) is reported as “no activity”. Besides, the “activity against TNF-α production” value in test [2] (0.01∼1 µM) is listed as “no activity”. In addition, in test [3], the inhibition at 1 µM is 24.6%.
